Source: patent publication US12673936B2, “Isoindolinone compounds, and uses thereof” (HANGZHOU GLUBIO PHARMACEUTICAL CO., LTD., priority 2021, dated 2026)
Read-outs that look alike come from different tables or passages of the source.

Key:
Assay type in all cases: cell-based
[1] = tested on: MV4-11 cells; assay: MV4-11 cell proliferation assay (CTG cell viability); details: 120 hours, read-out: CTG cell viability assay_MV4-11: IC50
Protocol: MV4-11 Cell Proliferation Assay
The following is an example of an assay that can be used to determine the dose-dependent, anti-proliferative activity of CK1α degradating compounds in an AML cell line such as MV4-11 (ATCC Cat #CRL-9591).
(§1) MV4-11 cells were seeded into a 384-well plate (Cat #3764, Corning) pre-spotted with DMSO or test compounds. Increasing concentrations of test compounds (ranging from 1×10^−3 μM to 10 μM at a 3.162-fold increment in a 10-point dose response assay; ranging from 3.162×10^−4 μM to 10 μM at a 3.162-fold increment in a 11-point dose response assay) or DMSO were dispensed into an empty 384-well plate using an a D300e digital dispenser (Tecan) or an Echo Acoustic Liquid Handler (Beckman Coulter). About 2,000 cells in 50 μL of culture media (IMDM plus 10% heat-inactivated FBS) were seeded per well. Assay plates were incubated at 37° C. with 5% CO2 for 120 hours. After that, 20 μL of the CellTiter-Glo Luminescent Cell Viability Assay Reagent (Cat #G7573, Promega) was added to each well and incubated at room temperature for 30 minutes. Luminescence was then measured with an EnVision plate reader (PerkinElmer) or a PHERAstar plate reader (BMG LABTECH). All cell growth inhibition curves were processed using Collaborative Drug Discovery Vault softwares (Burlingame, CA, www.collaborativedrug.com).
Cell viability reads in compound-treated wells were normalized to that of DMSO control and expressed as Percent of Control (PoC, y). A four Parameter Logistic Model was used to determine the compound's EC50 and DC50, using the following equation:
[formula] • A==lowest cell viability read normalized to DMSO control in response to compound treatment, as determined by curve fit • B=cell viability read in DMSO control • C=EC50 • D=Hill Slope • x=compound concentration • EC50=the concentration of compound when y=(B−A)/2 • IC50=the concentration of the compound when y=50% of DMSO control • y=cell viability read normalized to DMSO control Ymin=(A/B)*100% • Ymin represents the lowest cell viability % that can be achieved by the compound treatment in the assay.

[2] = biological target: HiBiT tagged CK1α (Homo sapiens, UniProt P48729+Q96SW2); assay: CK1α degradation assay (HiBiT assay); details: 20 hours; for Dmax: HT-1080, HT-1080 cells; for DC50: concentration at 50% CK1α degradation
Method in brief: (§2)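 HT-1080 cells stably expressing wild-type CRBN, GSPT1A(1-138)/G575N and HiBiT-tagged CK1α or GSPT1, ~10,000/well, treated with compound from 3.162×10^-4 μM to 10 μM (3.16-fold steps). HiBiT luminescence normalized to DMSO as percent of control.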

[3] = biological target: HiBiT tagged GSPT1 (Homo sapiens, UniProt P15170+Q96SW2); assay: GSPT1 degradation assay (HiBiT assay); details: 20 hours, maximum GSPT1 degradation; for Dmax: HT-1080, HT-1080 cells
Method in brief: as §2

[4] = KG-1a cell proliferation assay (CTG cell viability, counter screen for GSPT1-mediated cytotoxicity); details: human, KG-1a cells (AML cell line harboring p53 mutation), lowest cell viability, highest concentration 10 μM, read-out: CTG cell viability assay KG1a: Ymin
From the text: (§3) KG-1a Cell Proliferation Assay
(§4) On the other hand, most AML cell lines were reported to be sensitive to GSPT1 degradation induced by CC-885 or CC-90009 regardless of their p53 mutational status (Matyskiela et al., Nature (2016) 535:252-257; Surka et al., Blood (2021) 137 (5): 661-677). Because the subtle to moderate degradation of GSPT1 induced by CK1α degraders with mild activity towards GSPT1 might still result in toxicity in human, a counter screen using an AML cell line harboring p53 mutation such as KG-1a (ATCC Cat #CCL-246.1), was performed to determine the GSPT1-mediated cytotoxicity in vitro.
as §1, with “The following is an example of an assay that can be used to determine the potential GSPT1-dependent cytotoxcity of test compounds that degrade GSPT1. KG-1a cells” for “MV4-11 cells”, “[…]” for “1×10^−3 μM”, “[…]” for “3.162×10^−4 μM”, “with” for “with an”, “EnVision Multimode Plate Reader” for “EnVision plate reader”, “www.collaborativedrug.com). Cell viability reads in compound-treated wells were normalized to that of DMSO control and expressed as Percent of Control (PoC, y). A four Parameter Logistic Model was used to determine the compound's EC50 and DC50, using the following equation: […]” for “www.collaborativedrug.com).”

[5] = tested on: KG-1a cells; assay: as above; details: 120 hours, lowest cell viability, highest concentration 10 μM
From the text: as §3, §4
as §1, with “The following is an example of an assay that can be used to determine the potential GSPT1-dependent cytotoxcity of test compounds that degrade GSPT1. KG-1a cells” for “MV4-11 cells”, “[…]” for “1×10^−3 μM”, “[…]” for “3.162×10^−4 μM”, “with” for “with an”, “EnVision Multimode Plate Reader” for “EnVision plate reader”, “www.collaborativedrug.com). Cell viability reads in compound-treated wells were normalized to that of DMSO control and expressed as Percent of Control (PoC, y). A four Parameter Logistic Model was used to determine the compound's EC50 and DC50, using the following equation: […]” for “www.collaborativedrug.com).”

Chain of HiBiT tagged GSPT1 (P15170 whole entry): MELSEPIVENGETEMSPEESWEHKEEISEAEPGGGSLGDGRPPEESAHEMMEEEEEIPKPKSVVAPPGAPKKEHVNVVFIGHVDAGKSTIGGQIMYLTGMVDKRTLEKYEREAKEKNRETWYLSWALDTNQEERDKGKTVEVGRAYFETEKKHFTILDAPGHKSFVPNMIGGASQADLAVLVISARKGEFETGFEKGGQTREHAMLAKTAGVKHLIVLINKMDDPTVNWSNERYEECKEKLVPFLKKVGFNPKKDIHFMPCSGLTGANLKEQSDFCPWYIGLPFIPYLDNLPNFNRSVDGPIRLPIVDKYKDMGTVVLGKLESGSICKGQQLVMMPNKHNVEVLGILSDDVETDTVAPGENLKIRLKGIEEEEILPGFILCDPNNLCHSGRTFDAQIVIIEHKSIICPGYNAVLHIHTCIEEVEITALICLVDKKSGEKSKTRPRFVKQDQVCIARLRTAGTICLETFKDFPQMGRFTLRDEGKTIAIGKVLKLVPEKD
Chain of HiBiT tagged GSPT1 (Q96SW2 whole entry): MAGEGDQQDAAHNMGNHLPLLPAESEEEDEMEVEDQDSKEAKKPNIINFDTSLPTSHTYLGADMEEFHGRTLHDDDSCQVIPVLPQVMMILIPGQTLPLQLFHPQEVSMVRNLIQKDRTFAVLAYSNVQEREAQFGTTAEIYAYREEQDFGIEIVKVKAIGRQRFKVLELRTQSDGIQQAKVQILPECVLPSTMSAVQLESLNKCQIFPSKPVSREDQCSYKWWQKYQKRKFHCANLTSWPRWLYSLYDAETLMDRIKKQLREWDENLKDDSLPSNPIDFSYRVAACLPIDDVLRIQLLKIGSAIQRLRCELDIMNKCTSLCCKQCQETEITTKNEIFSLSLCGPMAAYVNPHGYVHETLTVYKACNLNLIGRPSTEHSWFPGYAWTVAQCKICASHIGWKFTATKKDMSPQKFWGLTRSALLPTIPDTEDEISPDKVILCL
Chain of HiBiT tagged GSPT1 (Q16531 whole entry partner): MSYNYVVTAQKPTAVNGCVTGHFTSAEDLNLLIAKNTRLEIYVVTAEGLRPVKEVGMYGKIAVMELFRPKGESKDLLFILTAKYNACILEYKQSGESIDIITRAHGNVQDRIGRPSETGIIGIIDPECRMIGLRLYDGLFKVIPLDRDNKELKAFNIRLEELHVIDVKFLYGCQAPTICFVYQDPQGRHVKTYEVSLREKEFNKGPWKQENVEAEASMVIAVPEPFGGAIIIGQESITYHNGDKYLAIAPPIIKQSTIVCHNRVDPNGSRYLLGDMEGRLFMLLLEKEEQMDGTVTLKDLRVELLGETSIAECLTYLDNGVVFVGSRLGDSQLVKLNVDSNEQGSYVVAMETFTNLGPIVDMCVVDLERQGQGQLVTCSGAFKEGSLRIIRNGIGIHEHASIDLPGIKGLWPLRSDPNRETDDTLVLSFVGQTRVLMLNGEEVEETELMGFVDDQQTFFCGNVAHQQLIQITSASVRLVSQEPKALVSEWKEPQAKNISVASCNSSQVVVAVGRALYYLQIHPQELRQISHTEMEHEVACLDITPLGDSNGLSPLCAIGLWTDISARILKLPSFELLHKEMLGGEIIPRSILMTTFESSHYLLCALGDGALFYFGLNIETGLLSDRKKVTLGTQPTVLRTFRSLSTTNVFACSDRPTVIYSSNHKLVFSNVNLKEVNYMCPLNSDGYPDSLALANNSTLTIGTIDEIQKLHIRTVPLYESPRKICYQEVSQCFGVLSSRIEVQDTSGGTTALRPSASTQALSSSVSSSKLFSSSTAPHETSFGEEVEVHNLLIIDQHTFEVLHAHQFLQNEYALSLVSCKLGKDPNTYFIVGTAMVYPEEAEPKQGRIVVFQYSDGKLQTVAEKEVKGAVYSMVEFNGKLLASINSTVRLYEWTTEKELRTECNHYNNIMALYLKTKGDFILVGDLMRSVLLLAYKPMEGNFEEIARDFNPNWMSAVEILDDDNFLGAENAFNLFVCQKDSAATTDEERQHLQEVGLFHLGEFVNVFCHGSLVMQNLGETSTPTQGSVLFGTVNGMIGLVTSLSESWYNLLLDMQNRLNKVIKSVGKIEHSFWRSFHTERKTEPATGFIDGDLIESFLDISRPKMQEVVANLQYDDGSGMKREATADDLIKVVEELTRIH
Chain of HiBiT tagged CK1α (P48729 whole entry): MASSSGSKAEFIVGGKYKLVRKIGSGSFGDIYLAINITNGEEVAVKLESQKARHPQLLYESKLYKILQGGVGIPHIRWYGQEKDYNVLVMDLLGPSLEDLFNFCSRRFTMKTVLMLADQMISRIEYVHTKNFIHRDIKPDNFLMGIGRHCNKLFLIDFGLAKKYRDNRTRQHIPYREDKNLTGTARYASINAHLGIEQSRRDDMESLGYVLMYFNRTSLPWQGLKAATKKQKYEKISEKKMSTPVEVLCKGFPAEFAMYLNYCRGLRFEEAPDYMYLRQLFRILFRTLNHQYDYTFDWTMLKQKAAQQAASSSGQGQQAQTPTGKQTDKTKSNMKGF
Chain of HiBiT tagged CK1α (Q96SW2 whole entry): as the sequence (Q96SW2 whole entry) above
Chain of HiBiT tagged CK1α (Q16531 whole entry partner): as the sequence (Q16531 whole entry partner) above

Row | SMILES | IC50 ([1]; Homo sapiens) [nM] | Dmax ([2]; maximum CK1α degradation) [%] | DC50 ([2]; HT-1080 cells) [nM] | Dmax [3] [%] | viability at 120 h, 10 µM [4] [%] | IC50 [1] [nM] | HiBiT CK1α: Dmax ([2]; HT-1080 cells, maximum CK1α degradation) [%] | HiBiT GSPT1: Dmax ([3]; HT-1080 cells) [%] | CTG cell viability assay KG1a: Ymin [5] [%]
1 | O=C1CCC(N2Cc3cc(C(=O)N[C@H](c4ccc(Cl)cc4)C4CC(F)(F)C4)ccc3C2=O)C(=O)N1 (stereo in doubt) [Compound 35, N-((*S)-(4-chlorophenyl)(3,3-difluorocyclobutyl)methyl)-2-(2,6-dioxopiperidin-3-yl)-1-oxoisoindoline-5-carboxamide] | 198 | 67 | 94.7 | 14.8 | 92.1 |  |  |  | 
2 | O=C1CCC(N2Cc3cc(C(=O)NC(c4ccc(F)cc4)C4CC(F)(F)C4)ccc3C2=O)C(=O)N1 (stereo not drawn) [Compound 4, N-((3,3-difluorocyclobutyl)(4-fluorophenyl)methyl)-2-(2,6-dioxopiperidin-3-yl)-1-oxoisoindoline-5-carboxamide] | 262 | 63.4 | 183 | 31.1 | 90.9 |  |  |  | 
3 | O=C1CCC(N2Cc3cc(C(=O)N[C@H](c4ccc(F)cc4)C4CCC4)ccc3C2=O)C(=O)N1 (stereo in doubt) [Compound 7, N—((*S)-cyclobutyl(4-fluorophenyl)methyl)-2-(2,6-dioxopiperidin-3-yl)-1-oxoisoindoline-5-carboxamide] |  |  | 81.7 |  |  | 112 | 71.8 | 28.6 | 91.7
